The record followed here is PMC4805609, “Estrogenic Effects of Several BPA Analogs in the Developing Zebrafish Brain” (Frontiers in Neuroscience, 2016).

pIC50: −log10 of the molar value.

The target in one assay is T1, zfERα (Danio rerio, UniProt P57717).
T1 sequence (P57717 1-569): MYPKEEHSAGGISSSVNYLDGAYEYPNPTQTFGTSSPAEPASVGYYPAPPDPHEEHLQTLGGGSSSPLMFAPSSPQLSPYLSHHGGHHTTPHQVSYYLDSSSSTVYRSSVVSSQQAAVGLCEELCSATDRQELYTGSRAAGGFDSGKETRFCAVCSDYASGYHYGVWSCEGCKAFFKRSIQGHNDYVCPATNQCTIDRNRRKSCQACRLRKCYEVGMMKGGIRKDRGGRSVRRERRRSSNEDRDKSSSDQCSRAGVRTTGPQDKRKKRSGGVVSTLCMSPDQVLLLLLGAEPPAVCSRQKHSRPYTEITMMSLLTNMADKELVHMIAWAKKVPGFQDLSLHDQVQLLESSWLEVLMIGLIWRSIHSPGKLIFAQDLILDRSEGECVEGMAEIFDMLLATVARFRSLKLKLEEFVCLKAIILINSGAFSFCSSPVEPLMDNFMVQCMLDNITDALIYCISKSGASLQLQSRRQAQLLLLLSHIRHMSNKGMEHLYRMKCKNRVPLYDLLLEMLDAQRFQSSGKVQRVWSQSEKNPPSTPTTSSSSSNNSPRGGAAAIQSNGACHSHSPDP
Kind of assay: competitive binding assay vs [3H]-E2 on in vitro translated zfERα. Set-up: containing the coding regions of each zebrafish estrogen receptor cDNA; species or system zebrafish. The conditions noted are these: for receptor-binding activity: competition with [3H]-E2, ERα, Figure 8A. As for the experimental part: (§1) We also performed a competitive binding assay to test the binding properties of our compounds of interest with the three zfERs (Blair et al., [2000]). The three zebrafish estrogen receptor proteins were synthesized using the Topo-pcDNA3 expression vector containing the coding region of zfERα, zfERβ1, and zfERβ2 (Menuet et al., [2002]). The TNT Quick Coupled Transcription/Translation Systems kit (Promega, Madison, WI, USA) was used for synthesis of zfER proteins by adding 1 μg of each ER expression vector and according to the manufacturer's protocol. […] IC50 were calculated using GraphPad Prism, version 6.07.

Assay [1] concerns the target T2, zfERβ1 (Danio rerio, UniProt Q5PR29).
T2 sequence (Q5PR29 1-592): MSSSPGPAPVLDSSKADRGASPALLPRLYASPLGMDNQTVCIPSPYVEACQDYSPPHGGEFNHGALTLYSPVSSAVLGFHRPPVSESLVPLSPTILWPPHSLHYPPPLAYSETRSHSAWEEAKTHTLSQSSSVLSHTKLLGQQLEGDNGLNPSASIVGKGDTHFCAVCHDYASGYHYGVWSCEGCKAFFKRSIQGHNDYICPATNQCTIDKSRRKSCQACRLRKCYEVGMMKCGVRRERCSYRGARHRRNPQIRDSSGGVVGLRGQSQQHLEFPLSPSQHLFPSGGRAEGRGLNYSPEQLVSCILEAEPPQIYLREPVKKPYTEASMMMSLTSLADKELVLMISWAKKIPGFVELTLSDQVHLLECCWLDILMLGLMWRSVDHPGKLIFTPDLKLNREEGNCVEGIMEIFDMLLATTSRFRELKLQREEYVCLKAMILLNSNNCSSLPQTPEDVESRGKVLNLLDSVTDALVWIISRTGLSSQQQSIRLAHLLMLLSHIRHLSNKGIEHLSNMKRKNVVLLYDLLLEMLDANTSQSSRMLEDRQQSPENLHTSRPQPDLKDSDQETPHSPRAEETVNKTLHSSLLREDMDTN
Kind of assay: competitive binding assay vs [3H]-E2 on in vitro translated zfERβ1. The arrangement: species or system zebrafish. The protocol:
as §1

In assay [2] the target is T2, zfERβ1. Nature of the assay: cyp19a1b-luciferase reporter gene assay in U251-MG glial cells transfected with zfERβ1. The format is cell-based, zebrafish. The conditions noted are these: 10–6 M, 24 h, U251-MG cells with ERβ1, vs DMSO. The text has this: The zfER-α, zfER-β1, and zfER-β2 expression vectors correspond to Topo-pcDNA3 expression vector (Invitrogen, San Diego, CA, USA), containing the coding regions of each zebrafish estrogen receptor cDNA as previously described (Menuet et al., [2002]). The cyp19a1b-Luciferase plasmid consists of 500 bp of the proximal promoter region of zebrafish cyp19a1b gene, containing an ERE, coupled to the luciferase reporter gene (Menuet et al., [2002]).
Human U251-MG glial cells were maintained in phenol red-free Dulbecco's Modified Eagle's Medium (DMEM; Life Technologies, Saint Aubin, France) supplemented with 10% fetal calf serum (Biowest, Nuaillé, France), 4 mM L-Glutamine (Gibco, Carlsbad, CA, USA) and 1 mM Na-Pyruvate (Life Technologies, Saint Aubin, France) and kept at 37°C and 5% CO2 atmosphere (Le Page et al., [2006]). The medium was also supplemented with 20 U/mL penicillin, 20 μg/mL streptomycin, and 50 ng/mL amphotericin B (Gibco). For transfections, cells were plated in 24-well plates at a density of 25,000 cells/ml in the same medium, except the fetal calf serum was charcoal-treated and used at a concentration of 2.5%. Cells were transfected with 25 ng/well either the vector expression containing or not the zfERα, zfERβ1, zfERβ2 coding region and cytomegalovirus [CMV]−β-Galactosidase, and 150 ng/well of the cyp19a1b-Luciferase reporter plasmid, using JetPEI as a transfection reagent (Polyplus Transfection, Illkirch, France). […] Luciferase activity was measured 24 h later (Luciferase assay system, Promega, Madison, WI, USA). β-Galactosidase activity was used to normalize transfection efficiency. Chemicals were tested in at least 3 independent experiments and each experiment was performed in triplicate.

The target of another assay is zfERβ2 (Danio rerio, UniProt Q7ZU32). As for the experimental part: as §1
zfERβ2, sequence (Q7ZU32 1-553): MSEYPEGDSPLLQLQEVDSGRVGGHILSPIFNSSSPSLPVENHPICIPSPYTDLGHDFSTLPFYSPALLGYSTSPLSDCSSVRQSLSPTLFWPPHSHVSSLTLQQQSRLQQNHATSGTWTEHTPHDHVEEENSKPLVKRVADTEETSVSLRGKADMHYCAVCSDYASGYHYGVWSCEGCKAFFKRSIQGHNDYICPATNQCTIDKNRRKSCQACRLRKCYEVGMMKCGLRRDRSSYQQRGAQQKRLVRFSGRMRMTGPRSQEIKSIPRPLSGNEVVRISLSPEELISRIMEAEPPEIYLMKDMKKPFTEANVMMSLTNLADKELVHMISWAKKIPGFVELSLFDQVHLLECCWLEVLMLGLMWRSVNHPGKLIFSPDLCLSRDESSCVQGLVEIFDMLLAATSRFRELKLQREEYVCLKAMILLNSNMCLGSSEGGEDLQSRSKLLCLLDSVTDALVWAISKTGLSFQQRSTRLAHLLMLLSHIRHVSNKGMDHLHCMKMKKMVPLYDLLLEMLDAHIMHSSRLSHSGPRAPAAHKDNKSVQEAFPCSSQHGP

Consider `Oc1ccc(C(c2ccc(O)cc2)(C(F)(F)F)C(F)(F)F)cc1` [BPAF, 2,2-bis(4-hydroxylphenyl)hexafluoropropane], for which the receptor-binding activity result on zfERα is listed as “bind in vitro to ERα receptor”. The pIC50 on zfERα (displacement of 10^−9 M [3H]-E2, ERα) was 7.12; on zfERβ1 [1], 6.18.
As to `CC(c1ccccc1)(c1ccc(O)cc1)c1ccc(O)cc1` [BPAP, 4,4′-(1-phenylethylidene)bisphenol], the “cyp19a1b-luciferase reporter gene induction” value on zfERβ1 [2] was “did not stimulate”.
Take `O=S(=O)(c1ccc(O)cc1)c1ccc(O)cc1` [BPS, bis-(4-hydroxyphenyl)sulfone]: the “cyp19a1b-luciferase reporter gene induction” value at zfERβ1 [2] is given as “did not stimulate”. Further, the receptor-binding activity entry is “almost no binding affinities” on zfERβ2; “almost no binding affinities” at zfERα; “almost no binding affinities” at zfERβ1 [1] (competition with [3H]-E2, ERβ1, Figure 8B).
